From patent US7452887B2, “Quinoline- and isoquinoline-based compounds exhibiting ATP-utilizing enzyme inhibitory activity, and compositions, and uses thereof” (Amphora Discovery Corporation, priority 2004, dated 2008)

Key:
MAPKAPK2 = MAPKAPK2 (Homo sapiens, UniProt P49137); experiment: HTS ATP-utilizing enzyme assay, off-chip mobility-shift (Caliper HTS 250); type: biochemical; conditions: test compound 10 μM, kinase listed = active (greater than six-sigma from the mean activity of inactive compounds)
MAPKAPK2, sequence (P49137 whole entry): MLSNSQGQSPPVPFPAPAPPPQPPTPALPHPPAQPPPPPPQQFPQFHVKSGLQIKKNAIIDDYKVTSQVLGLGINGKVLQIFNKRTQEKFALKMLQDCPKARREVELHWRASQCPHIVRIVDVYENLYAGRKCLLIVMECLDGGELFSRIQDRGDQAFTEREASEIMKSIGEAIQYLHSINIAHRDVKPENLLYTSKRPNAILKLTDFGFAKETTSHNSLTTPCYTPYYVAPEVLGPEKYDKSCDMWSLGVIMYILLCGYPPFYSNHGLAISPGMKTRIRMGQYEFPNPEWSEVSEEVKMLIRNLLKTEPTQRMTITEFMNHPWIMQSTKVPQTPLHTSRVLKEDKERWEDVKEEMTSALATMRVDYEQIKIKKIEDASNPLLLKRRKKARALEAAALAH
Method in brief: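 Phosphorylation of a peptide substrate was quantified by Caliper mobility-shift separation of substrate and product after 2.5 h at 20-22 °C, with compounds tested at 10 μM. Inhibition was normalized to EDTA-quenched (100%) and DMSO (0%) controls; six-sigma thresholds flagged actives.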

CHEK1 = biological target: T1, CHEK1 (Homo sapiens, UniProt O14757); experiment: as above; type: biochemical; conditions: test compound 10 μM, kinase listed = active (greater than six-sigma from the mean activity of inactive compounds)
T1 sequence (O14757 1-476): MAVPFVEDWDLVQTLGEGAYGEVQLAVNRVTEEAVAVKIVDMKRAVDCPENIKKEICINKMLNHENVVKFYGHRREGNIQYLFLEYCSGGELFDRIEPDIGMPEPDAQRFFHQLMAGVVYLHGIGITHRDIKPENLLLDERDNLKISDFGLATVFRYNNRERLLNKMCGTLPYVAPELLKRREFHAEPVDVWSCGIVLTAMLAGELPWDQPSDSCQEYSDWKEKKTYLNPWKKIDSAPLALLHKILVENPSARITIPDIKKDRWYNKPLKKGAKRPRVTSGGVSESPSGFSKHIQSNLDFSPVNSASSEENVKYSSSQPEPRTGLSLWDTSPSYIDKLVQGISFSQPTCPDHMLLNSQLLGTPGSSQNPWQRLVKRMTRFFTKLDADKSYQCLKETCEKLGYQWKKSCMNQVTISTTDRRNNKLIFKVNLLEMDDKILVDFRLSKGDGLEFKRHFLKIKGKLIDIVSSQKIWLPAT
Method in brief: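 Compounds were tested once at 10 μM against kinase with peptide substrate. After 2.5 hrs at 20° C. to 22° C., reactions were terminated with EDTA, and conversion was read as substrate/product ratio by mobility shift.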

Row | Activity (MAPKAPK2) | Activity (CHEK1) | Compound
1 | MAPKAPK2 |  | CN1CCN(c2ccc(Nc3ccnc4ccc(-c5cccc6ccccc56)cc34)cc2)CC1 [N-(4-(4-methylpiperazin-1-yl)phenyl)-6-(naphthalen-1-yl)quinolin-4-amine]
2 | MAPKAPK2 | CHEK1 | c1ccc(-c2ccc3nccc(Nc4ccc(N5CCNCC5)cc4)c3c2)cc1 [6-phenyl-N-(4-(piperazin-1-yl)phenyl)quinolin-4-amine]
3 | MAPKAPK2 |  | Cc1ccccc1-c1ccc2nccc(Nc3ccc(N4CCN(C)CC4)cc3)c2c1 [N-(4-(4-methylpiperazin-1-yl)phenyl)-6-o-tolylquinolin-4-amine]
4 | MAPKAPK2 | CHEK1 | CN1CCN(c2ccc(Nc3ccnc4ccc(-c5ccc6ccccc6c5)cc34)cc2)CC1 [N-(4-(4-methylpiperazin-1-yl)phenyl)-6-(naphthalen-2-yl)quinolin-4-amine]
5 | MAPKAPK2 |  | CN1CCN(c2ccc(Nc3ccnc4ccc(-c5ccc(F)cc5)cc34)cc2)CC1 [6-(4-fluorophenyl)-N-(4-(4-methylpiperazin-1-yl)phenyl)quinolin-4-amine]
6 | MAPKAPK2 |  | COc1ccc(-c2ccc3nccc(N(C)c4ccc(N5CCN(C)CC5)cc4)c3c2)cc1 [6-(4-methoxyphenyl)-N-methyl-N-(4-(4-methylpiperazin-1-yl)phenyl)quinolin-4-amine]
7 | MAPKAPK2 | CHEK1 | COc1ccc(-c2ccc3nccc(Nc4ccc(N5CCNCC5)cc4)c3c2)cc1 [6-(4-methoxyphenyl)-N-(4-(piperazin-1-yl)phenyl)quinolin-4-amine]
8 | MAPKAPK2 |  | CN1CCN(c2ccc(Nc3ccnc4ccc(-c5ccc(O)cc5)cc34)cc2)CC1 [4-(4-(4-(4-methylpiperazin-1-yl)phenylamino)quinolin-6-yl)phenol]
